Measured values: PubChem BioAssay (NCI)
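Assay format: 96-well plates, 48-hour exposure. TGI marks complete inhibition of growth.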

What was measured:
Experiment in all cases: NCI-60 cell line screen, 48 h
UO-31 renal = tested on: UO-31 renal
BT-549 breast = tested on: BT-549 breast
SNB-19 CNS = tested on: SNB-19 CNS
SN12C renal = tested on: SN12C renal
HOP-62 NSCLC = tested on: HOP-62 NSCLC
HCT-15 colon = tested on: HCT-15 colon
HOP-92 NSCLC = tested on: HOP-92 NSCLC
CCRF-CEM leukemia = tested on: CCRF-CEM leukemia
ACHN renal = tested on: ACHN renal
HS 578T breast = tested on: HS 578T breast
UACC-257 melanoma = tested on: UACC-257 melanoma
HCC-2998 colon = tested on: HCC-2998 colon
OVCAR-4 ovarian = tested on: OVCAR-4 ovarian
OVCAR-8 ovarian = tested on: OVCAR-8 ovarian
KM12 colon = tested on: KM12 colon
SF-539 CNS = tested on: SF-539 CNS
SNB-75 CNS = tested on: SNB-75 CNS
SF-268 CNS = tested on: SF-268 CNS
CAKI-1 renal = tested on: CAKI-1 renal
NCI-H226 lung = tested on: NCI-H226 lung
NCI-H522 lung = tested on: NCI-H522 lung
MOLT-4 leukemia = tested on: MOLT-4 leukemia
NCI-H23 lung = tested on: NCI-H23 lung
SF-295 CNS = tested on: SF-295 CNS
K-562 leukemia = tested on: K-562 leukemia
A498 renal = tested on: A498 renal
NCI-H460 lung = tested on: NCI-H460 lung
EKVX NSCLC = tested on: EKVX NSCLC
DU-145 prostate = tested on: DU-145 prostate
HT29 colon = tested on: HT29 colon
SK-MEL-2 melanoma = tested on: SK-MEL-2 melanoma
UACC-62 melanoma = tested on: UACC-62 melanoma
TK-10 renal = tested on: TK-10 renal
HL-60(TB) leukemia = tested on: HL-60(TB) leukemia
786-0 renal = tested on: 786-0 renal
COLO 205 colon = tested on: COLO 205 colon
U251 CNS = tested on: U251 CNS
OVCAR-3 ovarian = tested on: OVCAR-3 ovarian
MALME-3M melanoma = tested on: MALME-3M melanoma
SK-OV-3 ovarian = tested on: SK-OV-3 ovarian
IGROV1 ovarian = tested on: IGROV1 ovarian
T-47D breast = tested on: T-47D breast
MDA-N = tested on: MDA-N
MDA-MB-435 = tested on: MDA-MB-435
A549 NSCLC = tested on: A549 NSCLC
RXF 393 renal = tested on: RXF 393 renal
SW-620 colon = tested on: SW-620 colon
SK-MEL-5 melanoma = tested on: SK-MEL-5 melanoma
SK-MEL-28 melanoma = tested on: SK-MEL-28 melanoma
PC-3 prostate = tested on: PC-3 prostate
LOX IMVI melanoma = tested on: LOX IMVI melanoma
SR leukemia = tested on: SR leukemia
HCT-116 colon = tested on: HCT-116 colon
OVCAR-5 ovarian = tested on: OVCAR-5 ovarian
MCF7 breast = tested on: MCF7 breast
NCI/ADR-RES ovarian = tested on: NCI/ADR-RES ovarian
RPMI-8226 leukemia = tested on: RPMI-8226 leukemia
M14 melanoma = tested on: M14 melanoma
MDA-MB-231 breast = tested on: MDA-MB-231 breast
XF 498 CNS = tested on: XF 498 CNS
DLD-1 colon = tested on: DLD-1 colon
SNB-78 CNS = tested on: SNB-78 CNS
M19-MEL melanoma = tested on: M19-MEL melanoma
DMS 114 small cell lung = tested on: DMS 114 small cell lung
LXFL 529 NSCLC = tested on: LXFL 529 NSCLC
DMS 273 small cell lung = tested on: DMS 273 small cell lung

SMILES: Cn1c2ccc(F)cc2c2ccc3c(c21)C(=O)C=CC3=O
- TGI (UO-31 renal): 14.9 µM
- TGI (BT-549 breast): > 45 µM
- TGI (SNB-19 CNS): > 100 µM
- TGI (SN12C renal): 31 µM
- TGI (HOP-62 NSCLC): > 100 µM
- TGI (HCT-15 colon): 28.3 µM
- TGI (HOP-92 NSCLC): 15.5 µM
- TGI (CCRF-CEM leukemia): 5.27 µM
- TGI (ACHN renal): 13.7 µM
- TGI (HS 578T breast): > 86.5 µM
- TGI (UACC-257 melanoma): 30.9 µM
- TGI (HCC-2998 colon): 67.7 µM
- TGI (OVCAR-4 ovarian): 11.1 µM
- TGI (OVCAR-8 ovarian): 26.1 µM
- TGI (KM12 colon): > 91.9 µM
- TGI (SF-539 CNS): 35.8 µM
- TGI (SNB-75 CNS): 97.8 µM
- TGI (SF-268 CNS): 58.2 µM
- TGI (CAKI-1 renal): 11.8 µM
- TGI (NCI-H226 lung): > 91.3 µM
- TGI (NCI-H522 lung): 4.95 µM
- TGI (MOLT-4 leukemia): 13.2 µM
- TGI (NCI-H23 lung): 31.4 µM
- TGI (SF-295 CNS): > 100 µM
- TGI (K-562 leukemia): > 36.4 µM
- TGI (A498 renal): > 100 µM
- TGI (NCI-H460 lung): > 100 µM
- TGI (EKVX NSCLC): 37.9 µM
- TGI (DU-145 prostate): 43.3 µM
- TGI (HT29 colon): 49.2 µM
- TGI (SK-MEL-2 melanoma): > 74.2 µM
- TGI (UACC-62 melanoma): > 61.3 µM
- TGI (TK-10 renal): 13.7 µM
- TGI (HL-60(TB) leukemia): 2 µM
- TGI (786-0 renal): 8.21 µM
- TGI (COLO 205 colon): 21.6 µM
- TGI (U251 CNS): 23.9 µM
- TGI (OVCAR-3 ovarian): 19.6 µM
- TGI (MALME-3M melanoma): 23.2 µM
- TGI (SK-OV-3 ovarian): > 100 µM
- TGI (IGROV1 ovarian): 39 µM
- TGI (T-47D breast): 9 µM
- TGI (MDA-N): 27.7 µM
- TGI (MDA-MB-435): 38.1 µM
- TGI (A549 NSCLC): > 100 µM
- TGI (RXF 393 renal): 10.5 µM
- TGI (SW-620 colon): 8.54 µM
- TGI (SK-MEL-5 melanoma): 56.4 µM
- TGI (SK-MEL-28 melanoma): 28.5 µM
- TGI (PC-3 prostate): 19.3 µM
- TGI (LOX IMVI melanoma): 22.8 µM
- TGI (SR leukemia): > 20.2 µM
- TGI (HCT-116 colon): 20.3 µM
- TGI (OVCAR-5 ovarian): > 73.4 µM
- TGI (MCF7 breast): 16.5 µM
- TGI (NCI/ADR-RES ovarian): 59.6 µM
- TGI (RPMI-8226 leukemia): 33.4 µM
- TGI (M14 melanoma): 27.3 µM
- TGI (MDA-MB-231 breast): 16.5 µM

SMILES: Cc1[nH]c(=O)nc(N/N=C/c2ccc(O)cc2)c1C(=O)Nc1ccc(O)cc1
- TGI (UO-31 renal): > 100 µM
- TGI (SN12C renal): > 100 µM
- TGI (HOP-62 NSCLC): > 100 µM
- TGI (HOP-92 NSCLC): > 100 µM
- TGI (CCRF-CEM leukemia): > 100 µM
- TGI (HCC-2998 colon): > 100 µM
- TGI (OVCAR-4 ovarian): > 100 µM
- TGI (SF-539 CNS): > 100 µM
- TGI (SNB-75 CNS): > 100 µM
- TGI (SF-268 CNS): > 100 µM
- TGI (CAKI-1 renal): > 100 µM
- TGI (NCI-H226 lung): > 100 µM
- TGI (NCI-H522 lung): > 100 µM
- TGI (XF 498 CNS): > 100 µM
- TGI (MOLT-4 leukemia): > 100 µM
- TGI (NCI-H23 lung): > 100 µM
- TGI (DLD-1 colon): > 100 µM
- TGI (K-562 leukemia): > 100 µM
- TGI (A498 renal): > 100 µM
- TGI (NCI-H460 lung): > 100 µM
- TGI (SNB-78 CNS): > 100 µM
- TGI (SK-MEL-2 melanoma): > 100 µM
- TGI (UACC-62 melanoma): > 100 µM
- TGI (HL-60(TB) leukemia): > 100 µM
- TGI (786-0 renal): > 100 µM
- TGI (COLO 205 colon): > 100 µM
- TGI (MALME-3M melanoma): > 100 µM
- TGI (SK-OV-3 ovarian): > 100 µM
- TGI (IGROV1 ovarian): > 100 µM
- TGI (M19-MEL melanoma): > 100 µM
- TGI (SK-MEL-28 melanoma): > 100 µM
- TGI (DMS 114 small cell lung): > 100 µM
- TGI (SR leukemia): > 100 µM
- TGI (LXFL 529 NSCLC): > 100 µM
- TGI (HCT-116 colon): > 100 µM
- TGI (RPMI-8226 leukemia): > 100 µM
- TGI (M14 melanoma): > 100 µM
- TGI (DMS 273 small cell lung): > 100 µM

SMILES: C/C=C1/CN2CCC34c5ccccc5N(C)C23C2CC1C4(C(=O)OC)C(OC(C)=O)O2 (centres undefined)
- TGI (UO-31 renal): > 100 µM
- TGI (BT-549 breast): > 100 µM
- TGI (SNB-19 CNS): > 100 µM
- TGI (SN12C renal): > 100 µM
- TGI (HOP-62 NSCLC): > 100 µM
- TGI (HCT-15 colon): > 100 µM
- TGI (HOP-92 NSCLC): > 100 µM
- TGI (CCRF-CEM leukemia): > 100 µM
- TGI (ACHN renal): > 100 µM
- TGI (HS 578T breast): > 100 µM
- TGI (UACC-257 melanoma): > 100 µM
- TGI (HCC-2998 colon): > 100 µM
- TGI (OVCAR-4 ovarian): > 100 µM
- TGI (OVCAR-8 ovarian): > 100 µM
- TGI (KM12 colon): > 100 µM
- TGI (SF-539 CNS): > 100 µM
- TGI (SNB-75 CNS): > 100 µM
- TGI (SF-268 CNS): > 100 µM
- TGI (CAKI-1 renal): > 100 µM
- TGI (NCI-H226 lung): > 100 µM
- TGI (NCI-H522 lung): > 100 µM
- TGI (MOLT-4 leukemia): > 100 µM
- TGI (NCI-H23 lung): > 100 µM
- TGI (SF-295 CNS): > 100 µM
- TGI (K-562 leukemia): > 100 µM
- TGI (A498 renal): > 100 µM
- TGI (NCI-H460 lung): > 100 µM
- TGI (EKVX NSCLC): > 100 µM
- TGI (DU-145 prostate): > 100 µM
- TGI (HT29 colon): > 100 µM
- TGI (SK-MEL-2 melanoma): > 100 µM
- TGI (UACC-62 melanoma): > 100 µM
- TGI (TK-10 renal): > 100 µM
- TGI (HL-60(TB) leukemia): > 100 µM
- TGI (786-0 renal): > 100 µM
- TGI (COLO 205 colon): > 100 µM
- TGI (U251 CNS): > 100 µM
- TGI (OVCAR-3 ovarian): > 100 µM
- TGI (SK-OV-3 ovarian): > 100 µM
- TGI (IGROV1 ovarian): > 100 µM
- TGI (T-47D breast): > 100 µM
- TGI (MDA-N): > 100 µM
- TGI (MDA-MB-435): > 100 µM
- TGI (A549 NSCLC): > 100 µM
- TGI (SW-620 colon): > 100 µM
- TGI (SK-MEL-5 melanoma): > 100 µM
- TGI (SK-MEL-28 melanoma): > 100 µM
- TGI (PC-3 prostate): > 100 µM
- TGI (LOX IMVI melanoma): > 100 µM
- TGI (SR leukemia): > 100 µM
- TGI (HCT-116 colon): > 100 µM
- TGI (OVCAR-5 ovarian): > 100 µM
- TGI (MCF7 breast): > 100 µM
- TGI (NCI/ADR-RES ovarian): > 100 µM
- TGI (RPMI-8226 leukemia): > 100 µM
- TGI (M14 melanoma): > 100 µM
- TGI (MDA-MB-231 breast): > 100 µM
